Experimental data taken from patent US20230096766A1, “AMINO ACID HAVING FUNCTIONAL GROUP CAPABLE OF INTERMOLECULAR HYDROGEN BONDING, PEPTIDE COMPOUND CONTAINING SAME AND METHOD FOR PRODUCTION THEREOF” (Chugai Seiyaku Kabushiki Kaisha, priority 2018, published 2023).
*1 amine or outer side, *2 acyl side, *3 side chain or, on linkers, in order; H or OH if unused. Where a SMILES comes first, the peptide text is derived from it. Bridges are numbered along the chain shown (N, C = ends). [ ]: non-standard residue; d: D form. The star is where a group is joined. hPhe(3-OMe,4-CONHMe) = CNC(=O)c1ccc(CC[C@H](N)C(=O)O)cc1OC; Phe(3-OMe,4-CONHMe) = CNC(=O)c1ccc(C[C@H](N)C(=O)O)cc1OC; Phe(4-CF3) = N[C@@H](Cc1ccc(C(F)(F)F)cc1)C(=O)O; NMePhe(3-Cl) = CN[C@@H](Cc1cccc(Cl)c1)C(=O)O; X12 = O=C([C@H](CCCC(O)C(F)(F)F)N[*:1])[*:2]; Hyp = O=C(O)[C@@H]1C[C@@H](O)CN1; NMeF = CN[C@@H](Cc1ccccc1)C(=O)O; NMeGABA = CN(CCCC(=O)[*:2])[*:1]; NMeI = CC[C@H](C)[C@H](NC)C(=O)O; NMeL = CN[C@@H](CC(C)C)C(=O)O; Butyl(3R-OH) = C[C@@H](O)CC*; NMeV = CN[C@H](C(=O)O)C(C)C; NMeAbu = CC[C@H](NC)C(=O)O; NMeA = CN[C@@H](C)C(=O)O; Piperidide = C1CCN(*)CC1; NBuGly = CCCCNCC(=O)O; NPrGly = CCCNCC(=O)O; Ethyl(2-OH) = OCC*; Sar = CNCC(=O)O; tBu = CC(C)(C)*

Assay: in vitro
Conditions: human, Caco-2, Caco-2 (cm/sec)

In order of falling Papp:
1. CC[C@H](C)[C@H]1C(=O)N2CCC[C@H]2C(=O)N(C)[C@@H](CC(C)C)C(=O)N[C@@H](COC(C)(C)C)C(=O)N2C[C@H](OCCO)C[C@H]2C(=O)N[C@@H]([C@@H](C)O)C(=O)N(C)[C@@H](CC(C)C)C(=O)N(C)[C@@H](CC(C)C)C(=O)N(C)[C@@H](CC(C)C)C(=O)N[C@H](C(=O)N2CCCCC2)CC(=O)N[C@H](CC(C)C)C(=O)N1C [AP238] ([dL][NMeI]P[NMeL]S(tBu)[Hyp](Ethyl(2-OH))T[NMeL][NMeL][NMeL]D-Piperidide; lactam N-11)  2 ×10⁻⁶ cm/s
2. CCCCN1CC(=O)N(C)[C@@H](CC(C)C)C(=O)N[C@@H](COC(C)(C)C)C(=O)N(C)[C@@H](Cc2ccccc2)C(=O)N(C)[C@@H](CC(C)C)C(=O)N[C@H](C(=O)N2CCCCC2)CC(=O)N[C@H](C(C)C)C(=O)N(C)[C@@H](C(C)C)C(=O)N[C@@H](Cc2ccc(C(=O)NC)c(OC)c2)C(=O)N(C)[C@@H](CC(C)C)C(=O)N[C@@H]([C@@H](C)O)C1=O [AP27] ([dV][NMeV][Phe(3-OMe,4-CONHMe)][NMeL]T[NBuGly][NMeL]S(tBu)[NMeF][NMeL]D-Piperidide; lactam N-11)  0.91 ×10⁻⁶ cm/s
3. CCCCN1CC(=O)N(C)[C@@H](CC(C)C)C(=O)N[C@H](C(=O)N2CCCCC2)CC(=O)N(C)[C@@H](C)C(=O)N[C@@H](COCC[C@@H](C)O)C(=O)N(C)[C@@H](CC(C)C)C(=O)N(C)[C@@H](Cc2cccc(Cl)c2)C(=O)N[C@@H](CC(C)C)C(=O)N(C)[C@@H](Cc2ccccc2)C(=O)N(C)[C@@H](C(C)C)C(=O)N[C@@H]([C@@H](C)O)C1=O [AP112] ([NMeA]S(Butyl(3R-OH))[NMeL][NMePhe(3-Cl)]L[NMeF][NMeV]T[NBuGly][NMeL]D-Piperidide; lactam N-11)  0.73 ×10⁻⁶ cm/s
4. CCCCN1CC(=O)N(C)[C@@H](CC(C)C)C(=O)N[C@@H](COC(C)(C)C)C(=O)N(C)[C@@H](CC(C)C)C(=O)N(C)[C@@H](CC)C(=O)N[C@H](C(=O)N2CCCCC2)CC(=O)N[C@H](CC(C)C)C(=O)N(C)[C@@H](Cc2ccccc2)C(=O)N[C@@H](CCc2ccc(C(=O)NC)c(OC)c2)C(=O)N(C)[C@@H](CC(C)C)C(=O)N[C@@H]([C@@H](C)O)C1=O [AP201] ([dL][NMeF][hPhe(3-OMe,4-CONHMe)][NMeL]T[NBuGly][NMeL]S(tBu)[NMeL][NMeAbu]D-Piperidide; lactam N-11)  0.35 ×10⁻⁶ cm/s
5. CC[C@H](C)[C@@H]1NC(=O)[C@H](CC(C)C)N(C)C(=O)CCCN(C)C(=O)C[C@@H](C(=O)N2CCCCC2)NC(=O)[C@H](CC(C)C)N(C)C(=O)[C@H](C)N(C)C(=O)[C@H](Cc2ccc(O)cc2)NC(=O)[C@H](CC(C)C)N(C)C(=O)[C@H](COC(C)(C)C)NC(=O)[C@H](CC(C)C)N(C)C(=O)[C@H](Cc2ccccc2)N(C)C1=O [pd129] ([NMeGABA][NMeL]I[NMeF][NMeL]S(tBu)[NMeL]Y[NMeA][NMeL]D-Piperidide; lactam N-11)  0.16 ×10⁻⁶ cm/s

Same assay, conditions: human, Caco-2, Caco-2 (cm/sec) Papp

Compound `CC(C)C[C@@H]1NC(=O)[C@H]([C@@H](C)O)NC(=O)[C@H](CC(C)C)N(C)C(=O)C[C@@H](C(=O)N2CCCCC2)NC(=O)[C@H](COC(C)(C)C)NC(=O)[C@H](Cc2ccccc2)NC(=O)[C@H](C)N(C)C(=O)[C@H](Cc2ccccc2)NC(=O)CN(C)C(=O)[C@H](Cc2ccccc2)N(C)C(=O)[C@H](Cc2ccccc2)N(C)C1=O` [pd245] ([NMeL]TL[NMeF][NMeF][Sar]F[NMeA]FS(tBu)D-Piperidide; lactam N-11) has a Papp of 0.019 ×10⁻⁶ cm/s.

Same assay, conditions: human, Caco-2, Caco-2 (membrane permeability)

In order of falling Papp:
1. CCCCN1CC(=O)N(C)[C@@H](CC(C)C)C(=O)N[C@H](C(=O)N2CCCCC2)CC(=O)N(C)[C@@H](C)C(=O)N[C@@H](CCCC(O)C(F)(F)F)C(=O)N(C)[C@@H](CC(C)C)C(=O)N(C)[C@@H](Cc2ccccc2)C(=O)N[C@@H](CC(C)C)C(=O)N(C)[C@@H](Cc2ccccc2)C(=O)N(C)[C@@H]([C@@H](C)CC)C(=O)N[C@@H]([C@@H](C)O)C1=O (stereo partly drawn) [Compound D04] ([NMeA][X12][NMeL][NMeF]L[NMeF][NMeI]T[NBuGly][NMeL]D-Piperidide; lactam N-11)  0.2 ×10⁻⁶ cm/s
2. CC(C)C[C@H]1C(=O)N[C@@H](CCCC(O)C(F)(F)F)C(=O)N(C)[C@@H](Cc2cccc(Cl)c2)C(=O)N(C)[C@@H](Cc2ccccc2)C(=O)N[C@@H](COC(C)(C)C)C(=O)N(C)[C@@H](CC(C)C)C(=O)N[C@@H]([C@@H](C)O)C(=O)N(C)[C@@H](CC(C)C)C(=O)N(C)[C@@H](CC(C)C)C(=O)N[C@H](C(=O)N2CCCCC2)CC(=O)N(C)CCCC(=O)N1C (stereo partly drawn) [Compound D02] ([NMeGABA][NMeL][X12][NMePhe(3-Cl)][NMeF]S(tBu)[NMeL]T[NMeL][NMeL]D-Piperidide; lactam N-11)  0.14 ×10⁻⁶ cm/s
3. CCCN1CC(=O)N(C)[C@@H](CC(C)C)C(=O)N[C@H](C(=O)N2CCCCC2)CC(=O)N(C)[C@@H](CC(C)C)C(=O)N[C@@H](Cc2ccc(C(F)(F)F)cc2)C(=O)N(C)[C@@H](CC(C)C)C(=O)N(C)[C@@H](CC(C)C)C(=O)N[C@@H](CCC(=O)NC)C(=O)N(C)[C@@H](Cc2ccccc2)C(=O)N(C)[C@@H]([C@@H](C)CC)C(=O)N[C@@H]([C@@H](C)O)C1=O [Compound J04] ([NMeL][Phe(4-CF3)][NMeL][NMeL]E(NHMe)[NMeF][NMeI]T[NPrGly][NMeL]D-Piperidide; lactam N-11)  0.087 ×10⁻⁶ cm/s
